Key:
Experiment in all cases: DSF Tm panel
Format in all cases: binding
Conditions in all cases: 10 μM compound
PIM1 (PIM1A) = target: T1, PIM1 (PIM1A) (Homo sapiens, UniProt P11309)
T1 construct: purchased in-house DSF kinase panel (SGC-style construct names; the trailing letter is the construct ID)

CAMK2DA = target: T2, CAMK2DA (Homo sapiens, UniProt Q13557)
T2 construct: purchased in-house DSF kinase panel (SGC-style construct names; the trailing letter is the construct ID)

STK10 = target: T3, STK10 (Homo sapiens, UniProt O94804)
T3 construct: purchased in-house DSF kinase panel (SGC-style construct names; the trailing letter is the construct ID)

MAP3K5A = target: T4, MAP3K5A (Homo sapiens, UniProt Q99683)
T4 construct: purchased in-house DSF kinase panel (SGC-style construct names; the trailing letter is the construct ID)

MAPK1A = target: T5, MAPK1A (Homo sapiens, UniProt P28482)
T5 construct: purchased in-house DSF kinase panel (SGC-style construct names; the trailing letter is the construct ID)

DAPK3 (DAPK3A) = target: T6, DAPK3 (DAPK3A) (Homo sapiens, UniProt O43293)
T6 construct: purchased in-house DSF kinase panel (SGC-style construct names; the trailing letter is the construct ID)

RPS6KA1A = tested on: RPS6KA1A
CASKA = target: T7, CASKA (Homo sapiens, UniProt O14936)
T7 construct: purchased in-house DSF kinase panel (SGC-style construct names; the trailing letter is the construct ID)
T7 sequence (O14936 12-276): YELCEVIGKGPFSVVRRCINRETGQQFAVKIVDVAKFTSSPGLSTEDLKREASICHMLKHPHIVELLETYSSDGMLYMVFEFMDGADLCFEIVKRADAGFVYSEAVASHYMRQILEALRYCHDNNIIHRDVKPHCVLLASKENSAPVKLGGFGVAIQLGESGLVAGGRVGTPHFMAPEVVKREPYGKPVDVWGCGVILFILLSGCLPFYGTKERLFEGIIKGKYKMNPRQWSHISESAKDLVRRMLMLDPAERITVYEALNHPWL

STK3 (STK3A) = target: T8, STK3 (STK3A) (Homo sapiens, UniProt Q13188)
T8 construct: purchased in-house DSF kinase panel (SGC-style construct names; the trailing letter is the construct ID)
T8 sequence (Q13188 16-313): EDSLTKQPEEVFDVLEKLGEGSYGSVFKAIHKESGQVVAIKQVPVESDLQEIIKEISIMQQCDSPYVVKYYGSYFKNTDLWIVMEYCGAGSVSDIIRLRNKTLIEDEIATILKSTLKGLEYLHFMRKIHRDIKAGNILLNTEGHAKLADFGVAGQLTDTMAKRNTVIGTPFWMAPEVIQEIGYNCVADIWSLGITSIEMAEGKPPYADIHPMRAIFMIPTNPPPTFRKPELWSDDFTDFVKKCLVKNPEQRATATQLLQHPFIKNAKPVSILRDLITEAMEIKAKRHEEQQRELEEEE

EPHA7A = target: T9, EPHA7A (Homo sapiens, UniProt Q15375)
T9 construct: purchased in-house DSF kinase panel (SGC-style construct names; the trailing letter is the construct ID)

MAP2K6A = target: T10, MAP2K6A (Homo sapiens, UniProt P52564)
T10 construct: purchased in-house DSF kinase panel (SGC-style construct names; the trailing letter is the construct ID)
T10 sequence (P52564 53-314): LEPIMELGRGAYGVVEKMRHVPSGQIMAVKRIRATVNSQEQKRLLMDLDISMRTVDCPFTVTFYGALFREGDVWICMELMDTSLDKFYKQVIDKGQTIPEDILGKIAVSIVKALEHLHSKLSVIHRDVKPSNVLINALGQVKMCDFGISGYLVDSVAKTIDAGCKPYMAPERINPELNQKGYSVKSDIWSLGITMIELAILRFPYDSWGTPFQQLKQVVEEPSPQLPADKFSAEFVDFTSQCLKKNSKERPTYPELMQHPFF

BMP2KA = target: T11, BMP2KA (Homo sapiens, UniProt Q9NSY1)
T11 construct: purchased in-house DSF kinase panel (SGC-style construct names; the trailing letter is the construct ID)

FESA = target: T12, FESA (Homo sapiens, UniProt P07332)
T12 construct: purchased in-house DSF kinase panel (SGC-style construct names; the trailing letter is the construct ID)

AAK1 (AAK1A) = target: T13, AAK1 (AAK1A) (Homo sapiens, UniProt Q2M2I8)
T13 construct: purchased in-house DSF kinase panel (SGC-style construct names; the trailing letter is the construct ID)

SLK = SLK (Homo sapiens, UniProt Q9H2G2); parameters: purchased in-house DSF kinase panel (SGC-style construct names; the trailing letter is the construct ID)
MARK3A = target: T14, MARK3A (Homo sapiens, UniProt P27448)
T14 construct: purchased in-house DSF kinase panel (SGC-style construct names; the trailing letter is the construct ID)

UKL3A (ULK3A) = target: T15, UKL3A (ULK3A) (Homo sapiens, UniProt Q6PHR2)
T15 construct: purchased in-house DSF kinase panel (SGC-style construct names; the trailing letter is the construct ID)
T15 sequence (Q6PHR2 1-279): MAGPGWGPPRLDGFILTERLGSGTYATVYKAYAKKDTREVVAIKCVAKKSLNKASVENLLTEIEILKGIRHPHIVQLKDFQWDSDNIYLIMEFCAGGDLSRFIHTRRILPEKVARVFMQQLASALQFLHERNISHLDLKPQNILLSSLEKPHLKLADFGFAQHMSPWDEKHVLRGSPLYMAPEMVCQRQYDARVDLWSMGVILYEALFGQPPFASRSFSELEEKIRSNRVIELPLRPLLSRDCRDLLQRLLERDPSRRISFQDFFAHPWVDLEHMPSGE

MAPK10A = target: T16, MAPK10A (Homo sapiens, UniProt P53779)
T16 construct: purchased in-house DSF kinase panel (SGC-style construct names; the trailing letter is the construct ID)

DMPK1A = target: T17, DMPK1A (Homo sapiens, UniProt Q09013)
T17 construct: purchased in-house DSF kinase panel (SGC-style construct names; the trailing letter is the construct ID)
T17 sequence (Q09013 1-629): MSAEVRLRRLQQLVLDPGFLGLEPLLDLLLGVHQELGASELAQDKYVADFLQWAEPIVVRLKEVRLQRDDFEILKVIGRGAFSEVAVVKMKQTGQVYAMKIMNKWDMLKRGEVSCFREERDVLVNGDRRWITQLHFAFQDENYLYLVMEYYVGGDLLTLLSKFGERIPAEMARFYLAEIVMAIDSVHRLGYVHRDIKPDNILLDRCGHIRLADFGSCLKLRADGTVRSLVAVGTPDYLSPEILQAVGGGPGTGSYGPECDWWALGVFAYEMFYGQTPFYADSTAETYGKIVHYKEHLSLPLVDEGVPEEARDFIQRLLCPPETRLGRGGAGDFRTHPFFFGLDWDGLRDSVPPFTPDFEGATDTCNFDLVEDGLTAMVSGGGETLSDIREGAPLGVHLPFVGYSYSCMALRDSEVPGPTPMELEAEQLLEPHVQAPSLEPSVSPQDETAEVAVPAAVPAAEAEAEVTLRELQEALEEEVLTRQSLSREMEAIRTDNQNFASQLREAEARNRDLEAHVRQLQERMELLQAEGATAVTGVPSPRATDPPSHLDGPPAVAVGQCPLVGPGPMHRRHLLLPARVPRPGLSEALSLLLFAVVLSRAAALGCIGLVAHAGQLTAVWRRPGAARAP

MARK4A = target: T18, MARK4A (Homo sapiens, UniProt Q96L34)
T18 construct: purchased in-house DSF kinase panel (SGC-style construct names; the trailing letter is the construct ID)
T18 sequence (Q96L34 59-310): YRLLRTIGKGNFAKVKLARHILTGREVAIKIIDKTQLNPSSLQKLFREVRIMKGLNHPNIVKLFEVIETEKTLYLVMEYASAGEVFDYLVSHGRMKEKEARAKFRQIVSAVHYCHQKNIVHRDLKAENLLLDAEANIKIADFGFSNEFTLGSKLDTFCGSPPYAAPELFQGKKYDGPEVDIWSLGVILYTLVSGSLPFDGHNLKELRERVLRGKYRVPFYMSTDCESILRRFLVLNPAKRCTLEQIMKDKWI

T4 sequence (Q99683 659-951): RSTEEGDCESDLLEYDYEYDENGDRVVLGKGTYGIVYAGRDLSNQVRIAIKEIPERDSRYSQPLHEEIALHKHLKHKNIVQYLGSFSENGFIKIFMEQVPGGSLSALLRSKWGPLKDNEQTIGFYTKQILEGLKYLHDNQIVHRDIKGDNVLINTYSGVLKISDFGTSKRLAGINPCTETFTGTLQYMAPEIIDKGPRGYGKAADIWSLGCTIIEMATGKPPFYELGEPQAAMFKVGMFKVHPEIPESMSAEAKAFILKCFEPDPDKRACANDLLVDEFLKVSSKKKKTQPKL
T14 sequence (P27448 56-307): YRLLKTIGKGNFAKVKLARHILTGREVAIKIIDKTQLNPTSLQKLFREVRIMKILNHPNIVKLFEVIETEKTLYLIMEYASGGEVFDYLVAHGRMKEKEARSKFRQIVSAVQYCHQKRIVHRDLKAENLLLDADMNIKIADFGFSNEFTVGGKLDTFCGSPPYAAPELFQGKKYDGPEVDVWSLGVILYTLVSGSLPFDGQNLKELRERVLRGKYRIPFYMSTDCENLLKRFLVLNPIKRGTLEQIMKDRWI
T11 sequence (Q9NSY1 38-345): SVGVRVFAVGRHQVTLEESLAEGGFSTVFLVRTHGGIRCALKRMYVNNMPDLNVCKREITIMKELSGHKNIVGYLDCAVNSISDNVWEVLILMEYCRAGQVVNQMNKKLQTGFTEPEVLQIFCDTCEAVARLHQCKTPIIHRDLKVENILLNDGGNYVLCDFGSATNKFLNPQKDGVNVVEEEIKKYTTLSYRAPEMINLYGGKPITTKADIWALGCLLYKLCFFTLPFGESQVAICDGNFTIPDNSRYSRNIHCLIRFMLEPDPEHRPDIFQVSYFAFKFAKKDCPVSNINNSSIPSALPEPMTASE
T6 sequence (O43293 whole entry): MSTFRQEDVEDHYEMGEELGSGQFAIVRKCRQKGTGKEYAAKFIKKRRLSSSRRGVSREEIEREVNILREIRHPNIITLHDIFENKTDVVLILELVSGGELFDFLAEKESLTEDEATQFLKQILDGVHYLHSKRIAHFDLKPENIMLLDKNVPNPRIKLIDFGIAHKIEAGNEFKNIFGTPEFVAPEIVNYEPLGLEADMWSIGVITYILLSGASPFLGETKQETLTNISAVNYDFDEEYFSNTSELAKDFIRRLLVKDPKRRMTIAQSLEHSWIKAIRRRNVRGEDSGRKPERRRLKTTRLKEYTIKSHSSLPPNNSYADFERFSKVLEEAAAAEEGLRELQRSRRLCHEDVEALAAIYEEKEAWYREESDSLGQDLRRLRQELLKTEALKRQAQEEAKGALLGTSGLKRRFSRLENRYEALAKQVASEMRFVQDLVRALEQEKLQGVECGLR
T2 sequence (Q13557 11-309): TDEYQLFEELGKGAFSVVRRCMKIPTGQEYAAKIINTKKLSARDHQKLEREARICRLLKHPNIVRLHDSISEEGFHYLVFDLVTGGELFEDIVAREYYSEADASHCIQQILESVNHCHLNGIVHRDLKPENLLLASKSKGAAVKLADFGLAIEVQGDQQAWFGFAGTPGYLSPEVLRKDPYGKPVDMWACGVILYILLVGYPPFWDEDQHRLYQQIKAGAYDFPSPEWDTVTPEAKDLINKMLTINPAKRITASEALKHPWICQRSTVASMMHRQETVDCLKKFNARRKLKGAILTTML
T3 sequence (O94804 18-317 limits assumed): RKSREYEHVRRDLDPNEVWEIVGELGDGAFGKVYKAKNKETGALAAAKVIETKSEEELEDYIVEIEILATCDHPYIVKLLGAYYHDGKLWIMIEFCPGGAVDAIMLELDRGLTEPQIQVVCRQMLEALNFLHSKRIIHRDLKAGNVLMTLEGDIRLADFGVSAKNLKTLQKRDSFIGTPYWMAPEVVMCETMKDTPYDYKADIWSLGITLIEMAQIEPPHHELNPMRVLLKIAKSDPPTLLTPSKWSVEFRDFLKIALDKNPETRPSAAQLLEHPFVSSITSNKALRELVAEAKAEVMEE
T12 sequence (P07332 whole entry): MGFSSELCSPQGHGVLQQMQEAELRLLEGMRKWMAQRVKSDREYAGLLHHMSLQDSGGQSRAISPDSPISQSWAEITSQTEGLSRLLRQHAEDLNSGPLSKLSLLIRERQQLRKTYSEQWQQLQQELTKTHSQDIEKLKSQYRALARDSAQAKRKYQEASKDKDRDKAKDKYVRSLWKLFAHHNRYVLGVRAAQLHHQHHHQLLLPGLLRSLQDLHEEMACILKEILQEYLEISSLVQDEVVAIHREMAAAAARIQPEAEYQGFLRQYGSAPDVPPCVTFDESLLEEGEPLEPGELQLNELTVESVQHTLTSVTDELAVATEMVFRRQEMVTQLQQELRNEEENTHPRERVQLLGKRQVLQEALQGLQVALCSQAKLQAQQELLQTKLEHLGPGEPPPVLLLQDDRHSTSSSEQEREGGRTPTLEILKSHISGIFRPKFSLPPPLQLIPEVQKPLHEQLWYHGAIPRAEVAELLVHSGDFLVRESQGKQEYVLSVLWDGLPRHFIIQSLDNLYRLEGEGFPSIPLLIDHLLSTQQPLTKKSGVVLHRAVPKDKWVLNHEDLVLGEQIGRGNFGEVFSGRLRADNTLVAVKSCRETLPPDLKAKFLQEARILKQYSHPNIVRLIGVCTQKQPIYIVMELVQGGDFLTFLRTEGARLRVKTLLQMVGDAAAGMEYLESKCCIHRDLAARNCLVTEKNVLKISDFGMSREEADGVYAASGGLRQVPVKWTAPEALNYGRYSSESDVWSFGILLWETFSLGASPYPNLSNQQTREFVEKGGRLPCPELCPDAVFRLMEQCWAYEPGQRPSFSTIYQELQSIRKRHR
T13 sequence (Q2M2I8 27-365): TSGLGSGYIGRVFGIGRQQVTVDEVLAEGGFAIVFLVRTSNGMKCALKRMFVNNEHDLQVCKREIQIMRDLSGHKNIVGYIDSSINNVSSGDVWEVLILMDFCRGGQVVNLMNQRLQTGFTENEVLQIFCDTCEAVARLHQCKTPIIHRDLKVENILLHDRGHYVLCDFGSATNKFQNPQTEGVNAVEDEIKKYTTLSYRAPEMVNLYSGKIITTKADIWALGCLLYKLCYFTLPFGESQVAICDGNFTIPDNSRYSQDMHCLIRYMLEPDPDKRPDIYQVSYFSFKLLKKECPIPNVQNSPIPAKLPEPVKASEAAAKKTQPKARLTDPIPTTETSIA
T5 sequence (P28482 whole entry): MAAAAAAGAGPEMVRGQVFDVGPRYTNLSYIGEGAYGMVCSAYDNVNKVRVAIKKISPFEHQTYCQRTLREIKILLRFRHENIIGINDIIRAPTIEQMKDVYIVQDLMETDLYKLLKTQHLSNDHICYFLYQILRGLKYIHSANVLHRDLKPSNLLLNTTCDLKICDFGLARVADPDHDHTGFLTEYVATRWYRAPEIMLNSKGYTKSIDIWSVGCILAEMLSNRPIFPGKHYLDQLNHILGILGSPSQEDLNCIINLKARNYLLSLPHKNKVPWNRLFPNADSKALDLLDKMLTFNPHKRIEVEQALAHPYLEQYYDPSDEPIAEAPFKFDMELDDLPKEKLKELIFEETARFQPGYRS
T9 sequence (Q15375 590-899): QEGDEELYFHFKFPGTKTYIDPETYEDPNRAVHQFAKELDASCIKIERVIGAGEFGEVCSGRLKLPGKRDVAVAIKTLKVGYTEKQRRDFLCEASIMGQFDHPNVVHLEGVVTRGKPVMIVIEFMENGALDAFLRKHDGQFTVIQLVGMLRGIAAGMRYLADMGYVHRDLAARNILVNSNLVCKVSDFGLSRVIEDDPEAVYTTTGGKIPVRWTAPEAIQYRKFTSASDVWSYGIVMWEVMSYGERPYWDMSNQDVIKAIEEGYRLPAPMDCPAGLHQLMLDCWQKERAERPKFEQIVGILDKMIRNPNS
T16 sequence (P53779 39-402): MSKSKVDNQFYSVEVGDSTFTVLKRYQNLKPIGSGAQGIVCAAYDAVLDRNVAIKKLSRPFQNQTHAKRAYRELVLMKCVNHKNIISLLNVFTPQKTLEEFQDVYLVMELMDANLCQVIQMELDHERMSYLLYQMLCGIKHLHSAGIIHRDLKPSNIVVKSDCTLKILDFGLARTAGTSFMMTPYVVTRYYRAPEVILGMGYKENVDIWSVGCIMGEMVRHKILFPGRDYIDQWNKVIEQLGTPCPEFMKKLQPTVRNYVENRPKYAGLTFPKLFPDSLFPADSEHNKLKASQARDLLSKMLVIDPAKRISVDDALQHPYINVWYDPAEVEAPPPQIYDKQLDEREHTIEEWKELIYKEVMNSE
T1 sequence (P11309 whole entry): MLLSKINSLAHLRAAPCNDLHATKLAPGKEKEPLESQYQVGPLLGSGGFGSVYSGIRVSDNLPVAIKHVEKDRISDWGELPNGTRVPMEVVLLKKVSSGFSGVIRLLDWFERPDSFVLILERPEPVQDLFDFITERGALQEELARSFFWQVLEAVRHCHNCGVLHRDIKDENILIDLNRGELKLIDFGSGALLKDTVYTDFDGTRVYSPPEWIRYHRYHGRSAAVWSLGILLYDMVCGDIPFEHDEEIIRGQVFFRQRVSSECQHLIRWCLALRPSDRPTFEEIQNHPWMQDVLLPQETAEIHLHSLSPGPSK

SMILES | ΔTm at 10 µM (PIM1 (PIM1A)) | ΔTm at 10 µM (CAMK2DA) | ΔTm at 10 µM (STK10) | ΔTm at 10 µM (MAP3K5A) | ΔTm at 10 µM (MAPK1A) | ΔTm at 10 µM (DAPK3 (DAPK3A)) | ΔTm at 10 µM (CASKA) | ΔTm at 10 µM (STK3 (STK3A)) | ΔTm at 10 µM (EPHA7A) | ΔTm at 10 µM (MAP2K6A) | ΔTm at 10 µM (BMP2KA) | ΔTm at 10 µM (FESA) | ΔTm at 10 µM (AAK1 (AAK1A)) | ΔTm at 10 µM (SLK) | ΔTm at 10 µM (MARK3A) | ΔTm at 10 µM (UKL3A (ULK3A)) | ΔTm at 10 µM (MAPK10A) | ΔTm at 10 µM (DMPK1A) | ΔTm at 10 µM (MARK4A) | ΔTm RPS6KA1A (RPS6KA1A)
O=C(NCc1ccccc1C(F)(F)F)Nc1ccc2cc1OCCOCCNc1ccn3ncc-2c3n1 [compound 27] | 1.1 °C | 2.5 °C | 10.2 °C | 1.4 °C | 0.9 °C | 1.2 °C | 1.6 °C | 4.7 °C | 3 °C | 1.2 °C | 7.2 °C | 0.7 °C | 3.9 °C | 4.2 °C | 1.4 °C | 4.5 °C | 0.7 °C | 0.2 °C | 2.7 °C | 0,2 °C
COc1cc(CNC(=O)Nc2ccc3cc2OCCOCCNc2ccn4ncc-3c4n2)ccc1F [compound 33] | 1.6 °C | 2.4 °C | 6.7 °C | 2.8 °C | 1.6 °C | 2.1 °C | 0.9 °C | 3.9 °C | 1.9 °C | 1.1 °C | 10.2 °C | 0.5 °C | 6.4 °C | 2.4 °C | 0.3 °C | 4.5 °C | 0.7 °C | 0.7 °C | 2.2 °C | 0,5 °C
COc1ccc(CNC(=O)Nc2ccc3cc2OCCOCCNc2ccn4ncc-3c4n2)cc1F [compound 32] | 1.7 °C | 2.7 °C | 7.6 °C | 2 °C | 0.7 °C | 1.2 °C | 1.7 °C | 4.7 °C | 2.9 °C | 1 °C | 10.9 °C | 0.8 °C | 6.3 °C | 3.6 °C | 0.5 °C | 5.9 °C | 0.8 °C | 0.6 °C | 2.5 °C | 0,8 °C
Cc1ccc(F)cc1CNC(=O)Nc1ccc2cc1OCCOCCNc1ccn3ncc-2c3n1 [compound 26] | 1 °C | 2.4 °C | 9.2 °C | 0.9 °C | 0.8 °C | 1.2 °C | 1.2 °C | 4.1 °C | 2 °C | 0.7 °C | 9.1 °C | 0.3 °C | 5 °C | 3.2 °C | 0.2 °C | 3.9 °C | 0.5 °C | 0.3 °C | 1.9 °C | 0,3 °C
O=C(NCc1ccc(C(F)(F)F)cc1)Nc1ccc2cc1OCCOCCNc1ccn3ncc-2c3n1 [compound 28] | 1 °C | 2.7 °C | 9.9 °C | 2.1 °C | 0.9 °C | 1.2 °C | 0.5 °C | 5.1 °C | 3.5 °C | 1.1 °C | 7.7 °C | 1 °C | 4.7 °C | 3.1 °C | 1.4 °C | 4.3 °C | 1.1 °C | 0.3 °C | 2.7 °C | 0,2 °C

The next lines start with results.

ΔTm at 10 µM (PIM1 (PIM1A)) | ΔTm at 10 µM (CAMK2DA) | ΔTm at 10 µM (STK10) | ΔTm at 10 µM (MAP3K5A) | ΔTm at 10 µM (MAPK1A) | ΔTm at 10 µM (DAPK3 (DAPK3A)) | ΔTm at 10 µM (CASKA) | ΔTm at 10 µM (STK3 (STK3A)) | ΔTm at 10 µM (EPHA7A) | ΔTm at 10 µM (MAP2K6A) | ΔTm at 10 µM (BMP2KA) | ΔTm at 10 µM (FESA) | ΔTm at 10 µM (AAK1 (AAK1A)) | ΔTm at 10 µM (SLK) | ΔTm at 10 µM (MARK3A) | ΔTm at 10 µM (UKL3A (ULK3A)) | ΔTm at 10 µM (MAPK10A) | ΔTm at 10 µM (DMPK1A) | ΔTm at 10 µM (MARK4A) | SMILES | ΔTm RPS6KA1A (RPS6KA1A)
3.2 °C | 0.5 °C | 9.4 °C | 1.6 °C | 0.7 °C | 1.3 °C | 2.1 °C | 8 °C | 0.8 °C | 1.2 °C | 8.7 °C | 0.1 °C | 5.5 °C | 4.7 °C | 0.7 °C | 4.6 °C | 0.6 °C | 0.1 °C | 1.4 °C | O=C(NCc1cccc(Cl)c1)Nc1ccc2cc1OCCOCCNc1ccn3ncc-2c3n1 [compound 18] | 0,7 °C
1 °C | 2.1 °C | 7.5 °C | 1 °C | 0.7 °C | 0.5 °C | 1.1 °C | 3.4 °C | 1.1 °C | 0.7 °C | 8.3 °C | 2 °C | 5.5 °C | 2.5 °C | -0.1 °C | 4.2 °C | 0.3 °C | 0.3 °C | 1.9 °C | COc1ccccc1CNC(=O)Nc1ccc2cc1OCCOCCNc1ccn3ncc-2c3n1 [compound 29] | 0,5 °C
1.2 °C | 0.2 °C | 6.9 °C | 2 °C | -0.1 °C | 3.4 °C | 2.2 °C | 5.9 °C | -0.1 °C | 1.4 °C | 12.2 °C | 3 °C | 8.3 °C | 4.4 °C | 0.7 °C | 6.8 °C | -0.3 °C | 0.3 °C | 1.7 °C | O=C(NCc1ccccc1)Nc1ccc2cc1OCCOCCNc1ccn3ncc-2c3n1 [compound 16] | 1,4 °C

From publication PMC12621043, “Un-LOK-ing a New Approach for Conformational Selective Targeting of STK10 (LOK)” (ACS Medicinal Chemistry Letters, 2025)
